Converted amounts (≈) assume the structure as drawn.
Experiments:
mESC-D3 [1] = test system: mESC-D3; set-up: method as in Scholz et al. [1999]; details: ZEBET value printed beside hanging drop differentiation result; ref Scholz et al. [1999]; cited from earlier work
[2] = Automated CellTiter-Glo luminescent cell viability (cytotoxicity) assay, 5 d; details: mouse
Experimental: The CellTiter-Glo® luminescent cell viability assay (Promega, Cat. No. G7573) was automated in 96-well format on the lab automation platform Fluent® (Tecan, Männedorf, Switzerland). The procedure allowed the testing of six compounds in mESC-D3 and NIH/3T3 cells in parallel. On the first day, PBS was dispensed into the peripheral wells of the assay plates (200 μl/well) using the Multiple Channel Arm (MCA). Mouse ES-D3 and NIH/3T3 cells were plated (50 μl/well, 1 × 10^4 cells/ml)) using the Flexible Channel Arm (FCA) and transported into the Cytomat™ 10 (Thermo Fisher Scientific) for incubation using the Robotic Gripper Arm (RGA). A 7-point dilution series of the test compounds and control solutions were prepared in PBS or DMSO (Carl Roth, Cat. No. HN47.1) under the laminar flow, transferred to a 96-well 0.5-ml Masterblock plate (Greiner bio-one, Cat. No. 786261) and placed on the worktable. On the Fluent the compounds were transferred to a 96-well 2-ml Masterblock plate (Greiner bio-one, Cat. No. 780271) and further diluted in growth media using the FCA. Two hours after cell plating compounds and controls were transferred to the assay plate with the FCA (150 μl/well) and transported back in the Cytomat 10. On day three of the assay, the media was exchanged using the MCA: old media was aspirated and dispensed into a 96-deep-well plate (“waste”), freshly prepared compound, and control solution was dispensed into the assay plate. After two more days of incubation, the cell viability was determined using the CellTiter-Glo assay. The assay plates were transported from the Cytomat 10 to the Carousel (Tecan) to adapt to room temperature. After 25 min the cell supernatant was removed partially (80 μl/well) and CellTiter-Glo reagent was dispensed (50 μl/well). The assay plate was placed on a shaker for 1 min and afterward incubated 25 min in the Carousel before the Luminescence signal was detected on the Infinite M1000 Pro plate reader (Tecan).
(§1) Toxicity data from the MTT and CellTiter-Glo Assay was normalized against the vehicle control (100% viability) and plotted against the logarithmic compound concentration.

mESC-D3 [3] = assay: Conventional mouse ES-D3 differentiation assay in hanging drop format (petri dish; cardiomyocyte contraction, day 10); type: cell-based; details: manual; beating cardiomyocytes at day 10; in brackets the two individual experiments
Experimental: Separate Petri dishes were used for each concentration of test compound, untreated control, and solvent control. […] The EB suspension was incubated for 2 days. On day five of the assay, a fresh compound dilution series was prepared in media and transferred into 24-well cell culture plates (1 ml/well, Greiner bio-one, Cat. No. 662641). A separate 24-well plate was used for each compound concentration, untreated control, and solvent control (24 wells per condition). One EB was transferred from the Petri dish into each well of the 24-well plate. After further 5 days of incubation (= day 10 of the assay), cardiomyocyte contraction was determined in each well under the light microscope.

NIH/3T3 = test system: NIH/3T3; set-up: method as in Scholz et al. [1999]; details: ZEBET value, 7 d result; ref Scholz et al. [1999]; cited from earlier work
[4] = Manual human EST cytotoxicity assay, MTT, 5 d; details: human
Experimental: (§2) The cytotoxicity assessment with a reduced assay time of 5 days combined with either NADH- or ATP-based detection was also carried out with human induced pluripotent stem cells (hiPSCs). […] Furthermore, differences in the cytotoxicity effects between the hiPSCs and HDFfs were more pronounced than in the mouse cells. Similar to the cytotoxicity-based assay the overall variance in the data is reduced when viability data was obtained by an ATP-based read-out.
(§3) The MTT cell viability assay was performed as described (Seiler and Spielmann [2011]) with modifications. In brief, 96-well cell culture plates were coated with gelatin (0.1%) before plating mESC-D3. All peripheral wells of the assay plate were filled with 200 μl growth media (“blank”). Afterward, NIH/3T3 and mESC-D3 were plated in growth media (1 × 10^4 cells/ml, 50 μl/well). […] Vehicle (PBS) and positive control (5-fluorouracil) wells were also included on all assay plates. Three and 5 days after seeding the cell supernatant was replaced by freshly prepared compound solution (200 μl/well). Seven days after seeding the cell viability was detected. Therefore, the cell supernatant was aspirated from all wells, MTT solution (5 mg/ml) was added (20 μl/well) and the assay plate was incubated for 2 h at 37 °C and 5% CO2 in a humidified atmosphere. Afterward, all liquid was removed from the wells and MTT desorb solution (0.7% SDS in 2-propanol (Carl Roth, Cat. No. 9866.5), pre-warmed to 37 °C) was dispensed (130 μl/well). The assay plate was placed on a shaker for 15 min. Remaining precipitates were suspended by pipetting up and down with a multichannel pipette before measuring the absorption at 570 nm on a microtiter plate reader using 630 nm as a reference wavelength.
(§4) Figure S1: Step-wise evolution of the cytotoxicity assay towards the use of human cell lines. Related to Figure 2. Cytotoxicity assays were carried out with two compound sets on hiPSC line ZIPi013-E and HDFf, from which they were derived. […] A) 5 day MTT assay and manual handling. B) As in A), but using CellTiter-Glo® viability assay. All points in the graph represent the mean of 6 individual data points, including the standard error.

[5] = Manual human EST cytotoxicity assay, CellTiter-Glo, 5 d; details: human
Experimental: as §2
(§5) 96-well cell culture plates were coated with gelatin (0.1%) before plating mESC-D3. All peripheral wells of the assay plate were filled with 200 μl growth media. In order to assess compound toxicity on mESC-D3 and NIH/3T3 cells, cell suspensions of NIH/3T3, and mESC-D3 were prepared in growth media (1 × 10^4 cells/ml) and were transferred to all remaining wells (50 μl/well). A 7-point dilution series in growth media was prepared for each test compound and was transferred to the assay plate 2 h after cell seeding (150 μl/well). Afterward, the cells were incubated in a humidified atmosphere at 37 °C and 5% CO2. Three and 5 days after seeding the cell supernatant was replaced by freshly prepared compound solution (200 μl/well). Seven days after seeding the assay plate was taken out of the incubator and located at room temperature for 10 min, before cell supernatant was aspirated (80 μl/well) and CellTiter-Glo® reagent was dispensed (50 μl/well). The assay plate was placed on a shaker for 1 min and after another 10 min incubation at room temperature in the dark the luminescence signal was detected on a plate reader.
as §4

[6] = Manual CellTiter-Glo luminescent cell viability assay (7 d or 5 d); type: cell-based, mouse; details: mouse, in brackets the two individual experiments
Experimental: as §5, with “Seven days after seeding the assay plate was taken out of the incubator and located at room temperature for 10 min, before cell supernatant was aspirated (80 μl/well) and CellTiter-Glo® reagent was dispensed (50 μl/well).” left out
as §1

[7] = Manual MTT cell viability assay, 7 d; type: cell-based, mouse; details: mouse, manual, in brackets the two individual experiments
Experimental: as §3, §1

mESC-D3 [8] = test system: mESC-D3; set-up: method as in Scholz et al. [1999]; details: ZEBET value, 7 d result; ref Scholz et al. [1999]; cited from earlier work
[9] = test system: mESC-D3 and NIH/3T3 cells; details: manual murine EST assay; prediction model of Seiler and Spielmann 2011
mESC-D3 [10] = type: cell-based, mouse
Experimental: As an alternative to the morphological analysis at day 10, differentiation can be analyzed at day 7 of the assay by flow cytometry using the molecular flow EST (Buesen et al. [2009]). Previously, staining of cardiomyocytes was performed using an unconjugated primary monoclonal antibody directed against the sarcomeric MHC (clone MF20), followed by binding of a secondary biotin-conjugated goat anti-mouse IgG antibody which is then detected with the fluorochrome PE-SA (phycoerythrin-conjugated streptavidin) (Seiler and Spielmann [2011]). […] Of note, these experiments were performed in parallel with the same batch of spontaneously differentiated mESCs.
Embryoid bodies were formed in hanging drops (Petri dish) as already described. On day 5 of the assay, the EBs were transferred into a larger Petri dish and incubated for two more days at 37 °C, 5% CO2, and 95% humidity. Afterward, the EBs were dissociated using the Embryoid Body Dissociation Kit (Miltenyi Biotec, Cat. No. 130-096-348). EBs from two Petri dishes were harvested in one 15 ml tube and washed once with 10 ml PBS. The supernatant was discarded after centrifugation and a pre-warmed enzyme mix was added. The EB/enzyme mix was incubated for 10 min at 37 °C, dissociated for 1 min with a 1000 μl pipette, incubated for 5 min and mechanically dissociated again for 1 min. After the addition of 3 ml PBS, the cell suspension was passed through a 70-μm filter into a new 15-ml tube. The filter was then washed with 3 ml PBS and discarded afterward. The cell suspension was centrifuged for 5 min at 300 rpm. The supernatant was discarded afterward, cells were suspended in PBS and counted. For viability staining, 10^6 cells were suspended in 100 μl staining reagent (LIVE/DEAD™ Fixable Green Dead Stain Kit, Life Technologies, Cat. No. L34969), incubated for 30 min at 4 °C and washed with 1 ml PBS. For fixation, cells were suspended in 100 μl fixation buffer (BioLegend, Cat. No. 420801) and incubated 20 min at room temperature. For the intracellular staining, cells were washed twice with 1 ml permeabilization buffer (BioLegend, Cat. No. 421002) and suspended in 50 μl permeabilization buffer supplemented with 50 μl of pre-diluted (1:5) antibody (mouse IgG2B anti-human Myosin Heavy Chain APC-conjugated, mouse IgG2B APC-conjugated isotype control, R&D Systems, Cat. No. IC4470A). After 1 h incubation at room temperature cells were washed twice with 1 ml permeabilization buffer and suspended in FACS buffer. Within 2–3 h samples were measured on an LSR II flow cytometer (Beckton Dickinson). Data analysis was done using FlowJo software (Version 10.0.8; Tree Star).

[11] = mESC-D3 cells (mouse embryonic stem cells)
[12] = HDFf (human dermal fibroblasts of fetal origin)
[13] = NIH/3T3 cells, read-out: Cytotoxicity assay CTG, 5 d IC50 NIH/3T3
[14] = NIH/3T3 cells, read-out: Cytotoxicity assay CTG, 7 d IC50 NIH/ 3T3
[15] = mESC-D3 cells, read-out: Cytotoxicity assay CTG, 5 d IC50 mESC-D3
[16] = mESC-D3 cells, read-out: Cytotoxicity assay CTG, 7 d IC50 mESC-D3
[17] = NIH/3T3 cells, read-out: Cytotoxicity assay MTT, 7 d IC50 NIH/3T3
[18] = mESC-D3 cells, read-out: Cytotoxicity assay MTT, 7 d IC50 mESC-D3

Compound: CC1(C)S[C@@H]2[C@H](NC(=O)Cc3ccccc3)C(=O)N2[C@H]1C(=O)O [Penicillin G, penicillin G]
- ID50 mESC-D3 (ZEBET) (mESC-D3 [1]): 3450 µg/mL (≈ 10300 µM)
- IC50 at 5 d ([2]; NIH/3T3 cells): > 1000 µg/mL
- IC50 at 5 d [2, 11]: > 1000 µg/mL
- Differentiation assay in hanging drop (petri dish) ID50 mESC-D3 (mESC-D3 [3]): 1000 (> 1000; > 1000) µg/ml
- IC50 NIH/3T3 (ZEBET) (NIH/3T3): 1586 µg/mL (≈ 4740 µM)
- IC50 at 5 d [4, 12]: 822 µg/mL (≈ 2460 µM)
- IC50 at 5 d ([4]; hiPSC line ZIPi013-E): 750 µg/mL (≈ 2240 µM)
- IC50 at 5 d [5, 12]: 795 µg/mL (≈ 2380 µM)
- IC50 at 5 d ([5]; hiPSC line ZIPi013-E): > 1000 µg/mL
- IC50 at 5 d [6, 13]: 992 µg/mL (≈ 2970 µM)
- IC50 at 7 d [6, 14]: > 1000 µg/mL
- IC50 at 5 d [6, 15]: > 1000 µg/mL
- IC50 at 7 d [6, 16]: > 1000 µg/mL
- IC50 at 7 d [7, 17]: > 1000 µg/mL
- IC50 at 7 d [7, 18]: > 1000 µg/mL
- IC50 mESC-D3 (ZEBET) (mESC-D3 [8]): 2950 µg/mL (≈ 8820 µM)

Compound: C[C@@H]1C[C@H]2[C@@H]3CCC4=CC(=O)C=C[C@]4(C)[C@@]3(F)[C@@H](O)C[C@]2(C)[C@@]1(O)C(=O)CO [Dexamethasone, dexamethasone]
- ID50 mESC-D3 (ZEBET) (mESC-D3 [1]): 18.3 µg/mL (≈ 46.6 µM)
- IC50 at 5 d ([2]; NIH/3T3 cells): > 50 µg/mL
- IC50 at 5 d [2, 11]: 18.7 µg/mL (≈ 47.6 µM)
- Differentiation assay in hanging drop (petri dish) ID50 mESC-D3 (mESC-D3 [3]): 25.7 (29.1; 22.3) µg/ml
- Compound classification [9]: weak embryotoxicity
- IC50 NIH/3T3 (ZEBET) (NIH/3T3): 26 µg/mL (≈ 66.2 µM)
- IC50 at 5 d [6, 13]: 34.8 µg/mL (≈ 88.7 µM)
- IC50 at 7 d [6, 14]: 35.2 µg/mL (≈ 89.7 µM)
- IC50 at 5 d [6, 15]: 15.7 µg/mL (≈ 40 µM)
- IC50 at 7 d [6, 16]: 20.8 µg/mL (≈ 53 µM)
- IC50 at 7 d [7, 17]: 49.2 µg/mL (≈ 125 µM)
- IC50 at 7 d [7, 18]: 23.5 µg/mL (≈ 59.9 µM)
- IC50 mESC-D3 (ZEBET) (mESC-D3 [8]): 23 µg/mL (≈ 58.6 µM)

Compound: CCCC[C@@H](C)[C@@H](OC(=O)C[C@@H](CC(=O)O)C(=O)O)[C@H](C[C@@H](C)C[C@H](O)CCCC[C@@H](O)C[C@H](O)[C@H](C)N)OC(=O)C[C@@H](CC(=O)O)C(=O)O [Fumonisin, fumonisine B1]
- ID50 FACS (MHC-positive cells) (mESC-D3 [10]; flow cytometry, day 7): 2.26 µg/mL (≈ 3.13 µM)
- MHC-positive cells (mESC-D3 [10]; treated with 10 μg/ml, untreated 31% (hydroxyurea), 26% (fumonisine B1)): 3%
